Test results from patent publication US20230284994A1, “PET-CT IMAGING METHODS, CONTRAST AGENTS AND PHARMACEUTICAL COMPOSITIONS FOR USE IN SAID IMAGING METHODS” (ADIPOSS SÁRL, priority 2020, published 2023).

Columns and labels:
brown adipose tissue = experiment: 18FDG PET-CT scan for brown adipose tissue in syngeneic B16F10 melanoma mouse model, confirmed by necropsy; format: in vivo, C57B1/6 mice; settings: 12 scans (six with, six without contrast agent); based on 18FDG uptake or on uptake of PET-CT contrast agent
Description: Syngeneic mouse melanoma model (with tumor metastases dissemination to the lungs) was induced by intravenous injection of B16F10 murine melanoma cancer cells in C57B1/6 mice. 19 days after cells injection, the animals were administered with ^18FDG and a PET-CT scan was performed on each animal. One day later, the PET-CT contrast agent was administered via oral route to the same animals. Then, a second ^18FDG PET-CT scan was performed. In total, 12 ^18FDG PET-CT scans were performed (six with and six without the PET-CT contrast agent). The animals were then euthanized and necropsy was performed. Assessment of the PET-CT scans for absence of ^18FDG uptake but presence of contrast enhancement due to the PET-CT contrast agent allowed easy and robust detection of brown adipose tissue, increasing the sensitivity and positive predictive value of the PET-CT scan or BAT. In total, ^18FDG uptake in BAT was present in nine out of 12 PET-CT scans. However, all mice had BAT. Based on ^18FDG uptake, the sensitivity of the PET-CT scan for BAT was 75% (FIG. 5). Based on the uptake of the PET-CT contrast agent, the sensitivity for BAT was 100%. Using the PET-CT contrast agent, the sensitivity of the PET-CT scan for BAT in mice was thus improved by 25%.

tumour metastases = experiment: 18FDG PET-CT scan for metastases in syngeneic B16F10 melanoma mouse model, necropsy as standard of truth; format: in vivo, C57B1/6 mice; settings: six mice, 24 metastases by necropsy; scan without (18FDG only) or with oral PET-CT contrast agent
Description: Syngeneic mouse melanoma model (with tumor metastases dissemination to the lungs) was induced by intravenous injection of B16F10 murine melanoma cancer cells in C57B1/6 mice. 19 days after cells injection, the animals were administered with ^18FDG and a PET-CT scan was performed on each animal. One day later, the PET-CT contrast agent was administered via oral route to the same animals. Then, a second ^18FDG PET-CT scan was performed. The animals were then euthanized and necropsy was performed on each animal. Assessment of the PET-CT scans for co-localization of positive contrast enhancement of ^18FDG and PET-CT contrast agent allowed discriminating metastases from brown adipose tissue (FIGS. 2a and 3a). The ^18FDG signals present in BAT, that could be interpreted as false positives (metastases), were correctly attributed to BAT, improving the specificity and positive predictive value of the PET-CT scan for tumour metastases. This was confirmed by necropsy (FIGS. 2b, c and 3b, c). In total, based on necropsy (standard of truth), the six mice presented 24 metastases (four per mouse on average). […] Without the PET-CT contrast agent, the positive predictive value PPV of the ^18FDG PET-CT scan for metastases was 85% (FIG. 4). By using the PET-CT contrast agent, the PPV was 100%. The CT contrast agent thus improves the PPV of the ^18FDG PET-CT scan by 15%.

O=C[C@H]([18F])[C@@H](O)[C@H](O)[C@H](O)CO [^18FDG, 2-[fluorine-18]fluoro-2-deoxy-D-glucose]
sensitivity of the 18FDG PET-CT scan for BAT (brown adipose tissue): 75% | positive predictive value PPV of the 18FDG PET-CT scan for metastases (tumour metastases): 85%
